Source: patent EP1614416A2, “Method for treating amyloidosis” (QUEEN'S UNIVERSITY AT KINGSTON, priority 1993, dated 1994)
Where a name gives a salt, the structure may show the parent alone.

Columns and labels:
Type in all cases: in vivo, mice
[1] = system: AA splenic amyloid deposition; experiment: Chronic amyloidosis (LPS + AEF, inflammatory stimulus maintained), oral treatment from day 7, Experiments 5 and 6
Method: (§1) In the following experiments, a well-characterized mouse model of amyloidosis was used. In this in vivo system, animals receive an inflammatory stimulus and amyloid enhancing factor. For acute amyloidosis (i.e., short term amyloid deposition), the inflammatory stimulus is AgNO3. For chronic amyloidosis (ongoing amyloid deposition), the inflammatory stimulus is lipopolysaccharide (LPS). Amyloid deposition (AA amyloid) in the spleens of mice was measured with and without therapeutic treatment.
To maintain the inflammation and the blood SAA levels, and allow amyloid to be continuously deposited for the duration of a longer term experiment, the nature of the inflammatory stimulus was changed. So as to maintain the inflammation, animals received lipopolysaccharide (LPS, 20 µg)+ AEF on day 0 and LPS was given by intraperitoneal injection every 2nd day. On day seven (7), the animals were separated into two groups as described in Experiment 4. Assessment of amyloid over the course of the experiment proceeded as described in Experiment 4. The control group (triangles) continued to deposit amyloid for the entire 17 day period. Those receiving PVS apparently stopped depositing amyloid by day 14 (open circles and dashed line). The data on day 17 represent 4 animals per group as one animal was omitted from this time period. The quantity of amyloid in this particular individual was so far removed from all other data points (treated or not, it was 21%) that it is believed that this was a statistically valid procedure. If this individual is included, the curve is represented by the dotted line and the remaining open circle. It should be pointed out that animals receiving PVS began to develop a significant diarrhea as the experiment proceeded.
In this experiment, another sulfonated compound, ethane monosulfate was used to inhibit amyloidosis. Ethane monosulfonate, sodium salt, (EMS) is structurally the monomeric unit of PVS. Animals were given LPS + AEF as in Experiment 5, but on day seven EMS was used in the drinking water as the therapeutic agent. […]

[2] = system: amyloid deposition; experiment: Acute amyloidosis (AgNO3 + AEF), oral sulfonated lower aliphatics, visual examination of spleen sections, Experiment 8; settings: 50 µM in drinking water, six days; preliminary visual analysis of spleen sections
Method: Acute amyloidosis was elicited in mice with AgNO3 and amyloid enhancing factor as described in Experiment 2. Twenty-four hours later, the animals were divided into a control group and six test groups. The control group was maintained on standard laboratory mouse chow and tap water ad. lib. The test groups received standard chow but their water contained 50 µM of one of the following six compounds: ethanesulfonic acid sodium salt, 2-amino-ethanesulfonic acid sodium salt (taurine), propane-1-sulfonic acid sodium salt, ethane-1,2-disulfonic acid sodium salt, propane-1,3-disulfonic acid sodium salt, or butane-1,4-disulfonic acid sodium salt. Water intake was approximately equivalent for all groups. After six days, the animals were sacrificed and their spleens were processed as described for Experiment 2. For preliminary analysis, the spleen sections were examined visually under a microscope for differences in amyloid deposition in the treated animals versus the control animals.

[3] = system: AA amyloid deposition in mouse spleen; experiment: Acute AA amyloidosis mouse model (AgNO3 + AEF), intraperitoneal treatment, Experiment 1; settings: 36.5 mg/injection IP every 8 hours, mean ± S.E.M., n = 5, untreated 7.8, p ≤ 0.02, immunostained sections, image analysis
Method: as §1
All mice were of the CD strain (Charles Rivers, Montreal, Quebec) and weighing 25-30 g. […]
At the termination of the experiments, the animals were sacrificed by cervical dislocation and the spleens, livers, and kidneys were fixed in 96% ethanol, 1% glacial acetic acid and 3% water as described in Lyon, A.W. et al. ("Co-deposition of Basement Membrane Components During the Induction of Murine Splenic AA Amyloid" Lab. Invest. 64:785-790 (1991)). […] The histologic sections viewed under polarized light were assessed by image analysis for the percent of spleen occupied by amyloid. In the case of the experiments with sucrose octasulfate, the tissues were immunostained with an antibody to the SAA protein (described in Lyon A.W. et al. Lab Invest. 64:785-790 (1991)) and the immunostained sections assessed by image analysis for the percent of tissue section occupied by amyloid.

[4] = Viability of animals under intraperitoneal therapy, Experiment 1
Method: All animals received AgNO3 (0.5 ml, 2% solution) subcutaneously in the back, and amyloid enhancing factor (AEF) 100 µg intravenously. The preparation of amyloid enhancing factor has been described previously in Axelrad, M.A. et al. ("Further Characterization of Amyloid Enhancing Factor" Lab. Invest. 47:139-146 (1982)). The animals were divided into several groups one of which was an untreated control group which was sacrificed six days later. The remaining animals were divided into those which received poly(vinyl sulfonic acid sodium salt) (PVS) at 50 mg, 40 mg, 20 mg, or 10mg by intraperitoneal injection every 12 hours or sucrose octasulfate ammonium salt (SOA) at 73 mg or 36.5 mg every 8 hours by IP injection. Surviving animals were sacrificed on the 5th day of treatment. In all cases the PVS or SOA was dissolved in a sterile aqueous carrier.
All control animals survived the experiment without incident. […] Animals receiving 36.5 mg of sucrose octasulfate/injection all survived. […] In all cases of animal deaths prior to the end of the experiments, the cause of death was uncontrolled intraperitoneal hemorrhage.
Intraperitoneal injection was selected as providing a large membrane surface for ease of access to the circulating system. […]

## CCS(=O)(=O)O [EMS, Ethane monosulfonate, sodium salt]
[1]; 6 mg/ml EMS in drinking water from day 7
  course of splenic amyloid deposition (Figure 8): stopped depositing amyloid after day 14
[1]; EMS 2.5 or 6 mg/ml in drinking water
  gastrointestinal side effect: did not develop gastrointestinal problems
[1]; restated in Experiment 8 with reference to Experiment 6
  inhibition of chronic amyloid deposition: has been observed to inhibit chronic amyloid deposition
[2]
  amyloid deposition versus control animals: not observed to have less amyloid deposition than control animals

## O=S(=O)([O-])CCCCS(=O)(=O)[O-].[Na+].[Na+] [butane-1,4-disulfonic acid sodium salt]
[2]
  amyloid deposition versus control animals: not observed to have less amyloid deposition than control animals

## O=S(=O)([O-])CCS(=O)(=O)[O-].[Na+].[Na+] [ethane-1,2-disulfonic acid sodium salt]
[2]
  amyloid deposition versus control animals: less amyloid deposition than control animals

## O=S(=O)([O-])CCCS(=O)(=O)[O-].[Na+].[Na+] [propane-1,3-disulfonic acid sodium salt]
[2]
  amyloid deposition versus control animals: less amyloid deposition than control animals

## CCCS(=O)(=O)[O-].[Na+] [propane-1-sulfonic acid sodium salt]
[2]
  amyloid deposition versus control animals: less amyloid deposition than control animals

## N.N.N.N.N.N.N.N.O=S(=O)(O)OC[C@H]1O[C@@](COS(=O)(=O)O)(O[C@H]2O[C@H](COS(=O)(=O)O)[C@@H](OS(=O)(=O)O)[C@H](OS(=O)(=O)O)[C@H]2OS(=O)(=O)O)[C@@H](OS(=O)(=O)O)[C@@H]1OS(=O)(=O)O [sucrose octasulfate, sucrose octasulfate ammonium salt]
[3]; ammonium salt
  % Area Occupied by Amyloid: 3.2% ± 0.5%
[3]; listed as Sucrose OctaSO4, ammonium salt
  % Area Occupied by Amyloid: 3.2 ± 0.5%
[4]; 36.5 mg/injection IP every 8 hours
  viability of animals: all survived
[4]; 73 mg/injection IP every 8 hours, cause of death intraperitoneal hemorrhage
  viability of animals: succumbed prior to the termination of the experiment

## NCCS(=O)(=O)[O-].[Na+] [taurine sodium salt, 2-amino-ethanesulfonic acid sodium salt]
[2]
  amyloid deposition versus control animals: not observed to have less amyloid deposition than control animals
